Entries after “also recorded” stand apart in the source; their conditions may differ.
Experiments:
[1] = system: H. parasitica isolates Cala2 and Waco9; assay: Conidiophore counting on H. parasitica-inoculated Arabidopsis seedlings infiltrated with homoserine; type: in vivo, Hyaloperonospora parasitica
Protocol: The inoculated seedlings were infiltrated with dH2O, D-homoserine (5 mM) or L-homoserine (5 mM) at 3 days post inoculation with the pathogen.
(§1) To test if the effect is specific for homoserine the stereo-isomer D-homoserine was tested. Whole seedlings were infiltrated with water, 5 mM D-homoserine and 5 mM L-homoserine. […] The infiltration was applied to two Arabidopsis accessions, Ler eds1-2 and Ws eds1-1, susceptible to Cala2 and Waco9, respectively. Conidiophore formation was determined as an indicator for H. parsitica susceptibility. Conidiophores were counted 5 days post inoculation with H. parasitica and 2 days post infiltration with water, D-homoserine or L-homoserine. (FIG. 6). […] This was further confirmed by studying pathogen growth in planta by trypan blue staining of Arabidopsis seedlings. Plants were inoculated with isolate Cala2. Two days later the plants were treated by infiltration with water, 5 mM D-homoserine, and 5 mM L-homoserine.

[2] = system: H. parasitica isolate Cala2; assay: Microscopy of trypan blue stained seedlings: growth and development of H. parasitica in planta; type: in vivo, Hyaloperonospora parasitica; conditions: for haustorial development: 5 mM infiltration, microscopy, 40x magnification, FIG. 7b
Protocol: as §1
Again it is shown that increased levels of homoserine in planta lead to pathogen resistance.

[3] = 5 mM infiltration of whole Arabidopsis seedlings

Structure (SMILES) | pathogen growth [1, 3] | resistance / susceptibility to H. parasitica [1, 3] | haustorial development [2] | conidiophore formation (number of conidiophores per seedling) ([1]; 5 mM infiltration of whole seedlings, counted 5 days post inoculation, 2 days post infiltration, Ler eds1-2 (Cala2) and Ws eds1-1 (Waco9), FIG. 6) | pathogen growth in planta (trypan blue staining) ([2]; 5 mM infiltration two days after inoculation with Cala2, scored 5 days post inoculation, FIG. 7) | conidiophore formation (microscopy) ([2]; 5 mM infiltration two days after inoculation with Cala2, scored 5 days post inoculation, Ler eds1-2 seedlings, trypan blue, FIG. 7)
N[C@H](CCO)C(=O)O [D-homoserine, reference compound] | did not show a large reduction in pathogen growth | susceptible to H. parasitica | not |  |  | 
N[C@@H](CCO)C(=O)O [L-homoserine] |  | resistant; also recorded: resulted in resistance to H. parasitica | affected; also recorded: disturbed | complete absence of conidiophore formation; also recorded: reduction of conidiophore formation | strongly reduced pathogen growth | No conidiophore formation was detected
